Patent publication US20230257372A1 (CHONG KUN DANG PHARMACEUTICAL CORP., priority 2020, published 2023)
Where two headings read alike, the source gives them in different places.

Tests used:
human recombinant HDAC1 = biological target: T1, human recombinant HDAC1 (Homo sapiens, UniProt Q13547); test: HDAC1 enzyme activity inhibition (HDAC Fluorimetric Drug Discovery Kit); assay type: biochemical; conditions: read-out: HDAC1
T1 construct: purchased Enzo Life Science, Inc. BML-SE456
In short: (§1)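 Fluorimetric deacetylase read-out: after 30 min with Developer II following a 60 min, 30° C reaction of recombinant enzyme ([…]) with 10 μM substrate, across five-fold serial compound dilutions.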

human recombinant HDAC6 = biological target: T2, human recombinant HDAC6 (Homo sapiens, UniProt Q9UBN7); test: HDAC6 enzyme activity inhibition (HDAC Fluorimetric Drug Discovery Kit); assay type: biochemical
T2 construct: purchased Calbiochem Inc. 382180
T2 sequence (Q9UBN7 1-1215): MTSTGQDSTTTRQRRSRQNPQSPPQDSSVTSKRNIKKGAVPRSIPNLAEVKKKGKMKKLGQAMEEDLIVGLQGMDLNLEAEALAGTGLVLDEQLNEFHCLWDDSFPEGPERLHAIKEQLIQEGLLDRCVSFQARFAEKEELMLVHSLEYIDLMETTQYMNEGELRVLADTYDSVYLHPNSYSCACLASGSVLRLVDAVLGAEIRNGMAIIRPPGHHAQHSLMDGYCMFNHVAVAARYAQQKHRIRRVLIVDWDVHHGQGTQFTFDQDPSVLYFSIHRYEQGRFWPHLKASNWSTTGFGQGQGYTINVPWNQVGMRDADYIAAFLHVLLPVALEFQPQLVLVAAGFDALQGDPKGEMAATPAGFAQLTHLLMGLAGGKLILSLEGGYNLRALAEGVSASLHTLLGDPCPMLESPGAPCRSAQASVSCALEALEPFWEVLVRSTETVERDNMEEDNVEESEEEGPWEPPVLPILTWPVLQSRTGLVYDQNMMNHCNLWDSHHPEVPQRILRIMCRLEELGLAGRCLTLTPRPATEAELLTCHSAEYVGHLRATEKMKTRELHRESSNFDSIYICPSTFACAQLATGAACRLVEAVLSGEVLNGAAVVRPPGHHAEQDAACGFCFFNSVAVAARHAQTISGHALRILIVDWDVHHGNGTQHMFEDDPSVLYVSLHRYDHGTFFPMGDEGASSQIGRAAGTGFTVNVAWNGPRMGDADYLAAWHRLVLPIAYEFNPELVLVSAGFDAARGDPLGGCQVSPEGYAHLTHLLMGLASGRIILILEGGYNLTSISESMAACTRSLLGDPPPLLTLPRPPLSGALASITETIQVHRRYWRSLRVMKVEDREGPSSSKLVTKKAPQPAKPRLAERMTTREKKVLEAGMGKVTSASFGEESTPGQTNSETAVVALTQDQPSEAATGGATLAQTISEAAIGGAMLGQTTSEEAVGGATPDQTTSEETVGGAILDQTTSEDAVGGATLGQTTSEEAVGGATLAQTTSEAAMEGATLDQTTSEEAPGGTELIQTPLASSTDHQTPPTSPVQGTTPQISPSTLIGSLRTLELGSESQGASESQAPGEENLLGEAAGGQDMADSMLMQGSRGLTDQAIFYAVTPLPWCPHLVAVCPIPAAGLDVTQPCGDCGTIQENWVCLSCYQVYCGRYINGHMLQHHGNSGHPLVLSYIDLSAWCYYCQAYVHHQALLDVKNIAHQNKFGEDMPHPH
In short: as §1

[1] = human recombinant HDAC1, IC50 calculated with GraphPad Prism
[2] = human recombinant HDAC6, IC50 calculated with GraphPad Prism
[3] = human recombinant HDAC1, Fluor de Lys substrate, 30° C. 60 minutes
[4] = human recombinant HDAC6, same protocol as HDAC1

T1 sequence (Q13547 whole entry): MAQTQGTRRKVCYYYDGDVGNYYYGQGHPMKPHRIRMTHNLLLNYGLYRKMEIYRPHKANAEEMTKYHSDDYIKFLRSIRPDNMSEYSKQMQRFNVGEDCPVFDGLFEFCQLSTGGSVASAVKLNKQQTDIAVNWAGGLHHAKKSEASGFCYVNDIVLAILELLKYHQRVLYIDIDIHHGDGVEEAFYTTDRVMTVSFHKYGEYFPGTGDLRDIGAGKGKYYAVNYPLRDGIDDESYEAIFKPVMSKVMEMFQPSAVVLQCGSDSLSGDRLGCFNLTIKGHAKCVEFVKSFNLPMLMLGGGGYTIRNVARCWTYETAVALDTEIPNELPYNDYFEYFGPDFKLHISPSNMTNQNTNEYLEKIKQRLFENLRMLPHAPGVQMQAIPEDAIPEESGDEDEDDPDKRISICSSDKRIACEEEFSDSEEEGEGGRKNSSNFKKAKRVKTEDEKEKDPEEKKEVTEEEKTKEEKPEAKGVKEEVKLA

Structure (SMILES) | IC50 (human recombinant HDAC1; [1]) [nM] | HDAC6 selectivity (fold) (human recombinant HDAC6; HDAC1 IC50 / HDAC6 IC50) | IC50 (human recombinant HDAC6; [2]) [nM] | IC50 (human recombinant HDAC1; [3]) [nM] | HDAC6 selectivity (fold) (human recombinant HDAC6; HDAC6 over HDAC1) | IC50 (human recombinant HDAC6; [4]) [nM]
Fc1cc(-c2nnc(C(F)F)o2)ccc1Cn1cc(-c2ccc3c(c2)CCN(C2COC2)C3)nn1 [Compound 4362, 2-(difluoromethyl)-5-(3-fluoro-4-((4-(2-(oxetan-3-yl)-1,2,3,4-tetrahydroisoquinolin-6-yl)-1H-1,2,3-triazol-1-yl)methyl)phenyl)-1,3,4-oxadiazole] | > 50000 | 762 | 65.6 |  |  | 
Fc1cc(-c2nnc(C(F)F)o2)ccc1Cn1cc(-c2cncs2)nn1 [Compound 17851, 2-(difluoromethyl)-5-(3-fluoro-4-((4-(thiazol-5-yl)-1H-1,2,3-triazol-1-yl)methyl)phenyl)-1,3,4-oxadiazole] |  |  |  | > 50000 | 588 | 84.9
CC1(C)CCN(Cc2ccc(-c3cn(Cc4ccc(-c5nnc(C(F)F)o5)cc4F)nn3)cn2)CC1 [Compound 17777, 2-(difluoromethyl)-5-(4-((4-(6-((4,4-dimethylpiperidin-1-yl)methyl)pyridin-3-yl)-1H-1,2,3-triazol-1-yl)methyl)-3-fluorophenyl)-1,3,4-oxadiazole] |  |  |  | > 50000 | 952 | 52.5
Fc1cc(-c2nnc(C(F)F)o2)ccc1Cn1cc(-c2ccc(CN3CC[C@@H](F)C3)cn2)nn1 [Compound 18260, (R)-2-(difluoromethyl)-5-(3-fluoro-4-((4-(5-((3-fluoropyrrolidin-1-yl)methyl)pyridin-2-yl)-1H-1,2,3-triazol-1-yl)methyl)phenyl)-1,3,4-oxadiazole] |  |  |  | > 50000 | 775 | 64.5
Fc1cc(-c2nnc(C(F)F)o2)cnc1Cn1cc(-c2cccc(C3CCN(C4CCC4)CC3)c2)nn1 [Compound 18870, 2-(6-((4-(3-(1-cyclobutylpiperidin-4-yl)phenyl)-1H-1,2,3-triazol-1-yl)methyl)-5-fluoropyridin-3-yl)-5-(difluoromethyl)-1,3,4-oxadiazole] |  |  |  | > 50000 | 1123 | 44.5
CN1CC(c2cccc(-c3cn(Cc4ccc(-c5nnc(C(F)F)o5)cc4F)nn3)c2)C1 [Compound 4460, 2-(difluoromethyl)-5-(3-fluoro-4-((4-(3-(1-methylazetidin-3-yl)phenyl)-1H-1,2,3-triazol-1-yl)methyl)phenyl)-1,3,4-oxadiazole] | > 50000 | 148 | 337 |  |  | 
FC(F)c1nnc(-c2ccc(Cn3cc(-c4ccc(CNC5COC5)cc4)nn3)cc2)o1 [Compound 4556, N-(4-(1-(4-(5-(difluoromethyl)-1,3,4-oxadiazol-2-yl)benzyl)-1H-1,2,3-triazol-4-yl)benzyl)oxetan-3-amine] |  |  |  | > 50000 | 682 | 73.3
Fc1cc(-c2nnc(C(F)F)o2)ccc1Cn1cc(-c2cccc(CN3CCC3)c2)nn1 [Compound 4402, 2-(4-((4-(3-(azetidin-1-ylmethyl)phenyl)-1H-1,2,3-triazol-1-yl)methyl)-3-fluorophenyl)-5-(difluoromethyl)-1,3,4-oxadiazole] | > 50000 | 677 | 73.8 |  |  | 
Fc1cc(-c2nnc(C(F)F)o2)ccc1Cn1cc(-c2ccc3c(c2)CN(CC2(F)CC2)C3)nn1 [Compound 17460, 2-(difluoromethyl)-5-(3-fluoro-4-((4-(2-((1-fluorocyclopropyl)methyl)isoindolin-5-yl)-1H-1,2,3-triazol-1-yl)methyl)phenyl)-1,3,4-oxadiazole] |  |  |  | > 50000 | 572 | 87.4
CC(=O)N1CCCC(c2cn(Cc3ccc(-c4nnc(C(F)F)o4)cn3)nn2)C1 (stereo not drawn) [Compound 4004, 1-(3-(1-((5-(5-(difluoromethyl)-1,3,4-oxadiazol-2-yl)pyridin-2-yl)methyl)-1H-1,2,3-triazol-4-yl)piperidin-1-yl)ethan-1-one] | > 50000 | 150 | 332 |  |  | 
